This is an account of results in patent US4473577A, “2-Thiazolamine derivatives, process for preparing same, and pharmaceutical compositions comprising same” (Mitsui Toatsu Chemicals, Incorporated, priority 1982, dated 1984).

Series [1] concerns delayed hypersensitivity induced in mice by picryl chloride. Description: Augmentation test of delayed hypersensitivity (picryl chloride, ear thickness). In kind it is in vivo, male mice of the ICR strain. The conditions noted are these: mouse ICR, 50 mg per kg orally, simultaneously with sensitization; ear thickness before and 24 hours after challenge (7 days after sensitization); average of 16 measurements; * = P<0.05 vs control. The text has this:
L., and Ptak, W. "Contact and delayed hypersensitivity in the mouse I. Active sensitization and passive transfer," Immunology, 15, 405-416(1968)). In the following Evaluation Test 1, this experimental system was used to carry out an augmentation test of delayed hypersensitivity. Male mice of the ICR strain, weighing approximately 30 g, were used in groups of eight. These animals were sensitized by shaving the hair on the abdomen and applying thereto a 3% solution of picryl chloride in a 4:1 mixture of olive oil and acetone. Simultaneously with this sensitization, each of three compounds of the present invention was dissolved or suspended in physiological saline containing 0.2% carboxymethyl cellulose and administered orally to the animals in a dose of 50 mg per kg of body weight. A control group was treated solely with physiological saline containing 0.2% carboxymethyl cellulose. Seven days after sensitization, the animals were challenged by wrapping the tips of a forceps with pieces of felt, impregnating the felt with olive oil containing 1% picryl chloride, and pinching both ears of each animal. The thicknesses of the ears were measured before and 24 hours after the challenge, and the calculated present increase of ear thickness (the average of 16 measurements made of the ears of 8 animals) is shown in Table 1. […] The test results thus obtained were subjected to statistical analysis using the F.t test. The values marked with an asterisk (*) indicate that, when they were compared with the value of the control, the differences were significant at P<0.05.

For series [2], the system named is adjuvant arthritis induced in rats by injection of a tubercle bacillus adjuvant. In kind it is in vivo, male rats of the SD strain.
A short description of series [3]: Test for acute oral toxicity. On the set-up: species or system male mice of the ddY strain. The settings on record: mouse, in vivo, male ddY mice, 7 days observation, estimated. The procedure:
Each of the three compounds used in Evaluation Tests 1 and 2 was dissolved or suspended in physiological saline and administered orally to a group of 5 male mice of the ddY strain. The LD50 value of the compound was estimated by observing these animals for 7 days after administration.

Setting [4] is: rat SD, 5 mg per kg subcutaneously, nine times before and after adjuvant, left hind paw volume, * = P<0.05 vs control.

What is called LD50 is the dose expected to kill half of the subjects tested.

Counter-ions that a name gives are not always drawn. Like-named read-outs stand apart in the source and are kept apart here.

For the molecule `CCC(=O)Nc1nc(/C(=N/OC)C(=O)OC)cs1` [drawing 10], the “Percent increase of ear thickness” value in series [1] stood at 35.2%.

Turning to `CCC(=O)Nc1nc(/C(=N/OC)C(=O)OC)cs1` [drawing 13], the “Percent inhibition of swelling as compared with control group (average of 16-20 days)” value (shortened to “Percent inhibition of swelling”) in series [2] (setting [4]) was 22.3%. On to `c1ccc([C@H]2CN3CCSC3=N2)cc1` [Levamisole hydrochloride, reference compound], for which the LD50 at 168 h in series [3] is 200 to 300 mg/kg. Further, the “Percent increase of ear thickness” value in series [1] is 31.2%. Besides, the “Percent inhibition of swelling” value in series [2] (rat, in vivo, sc) stood at 19.8%. Consider `CO/N=C(\C(=O)OC)c1csc(NC(=O)OCC(Cl)(Cl)Cl)n1` [drawing 11], for which the “Percent inhibition of swelling” value in series [2] (setting [4]) is reported as 39.5%. Take `CO/N=C(\C(=O)OC)c1csc(NC(=O)OCC(Cl)(Cl)Cl)n1` [drawing 8]: the “Percent increase of ear thickness” value in series [1] is 33.4%.
